Data from ChEMBL document CHEMBL1201862, “PubChem BioAssay data set” (2004).
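Tested at 5 concentrations; 48 h exposure; 96-well plates; endpoints linearly interpolated, else capped at highest concentration. At the GI50, growth is halved.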 Calls of active or inactive are those of the source. Rule as the data show it: active = GI50 up to about 1.1 µM and inactive = higher.

Tests used:
Assay in all cases: growth of human tumour cells (NCI), 48 h
[1] = test system: A498
[2] = test system: A549
[3] = test system: CCRF-CEM
[4] = test system: EKVX
[5] = test system: HL-60
[6] = test system: HT-29
[7] = test system: K562
[8] = test system: MOLT-4
[9] = test system: NCI-H460
[10] = test system: NCI/ADR-RES
[11] = test system: OVCAR-4
[12] = test system: OVCAR-5
[13] = test system: OVCAR-8
[14] = test system: RXF 393
[15] = test system: SF-539
[16] = test system: SK-MEL-28
[17] = test system: SK-OV-3
[18] = test system: SNB-19
[19] = test system: SNB-75
[20] = test system: SR

In the case of `c1cnc(N2CCN(Cc3c[nH]c4ccccc34)CC2)nc1`, the GI50 [1] is reported as 28.7 µM (inactive), the GI50 [2] is reported as 80.4 µM (inactive) and the GI50 [3] is reported as 50.1 µM (inactive). For the same compound, the GI50 [4] was 85.3 µM (inactive), the GI50 [5] was 51.6 µM (inactive) and the GI50 [6] was 56.6 µM (inactive). The GI50 [7] was 40 µM (inactive), the GI50 [8] was 36.6 µM (inactive) and the GI50 [9] was 31.3 µM (inactive). The GI50 [10] was 52.8 µM (inactive), the GI50 [11] was 52 µM (inactive) and the GI50 [12] was > 100 µM (inactive). The GI50 [13] was 95.9 µM (inactive), the GI50 [14] was 41.9 µM (inactive) and the GI50 [15] was 25.6 µM (inactive). For the same compound, the GI50 [16] was > 100 µM (inactive), the GI50 [17] was > 100 µM (inactive) and the GI50 [18] was > 100 µM (inactive). The GI50 [19] was 89.9 µM (inactive).
In the case of `O=C(O)c1ccc([N+](=O)[O-])c2c(=O)c3ccccc3[nH]c12`, the GI50 [1] is reported as > 100 µM (inactive), the GI50 [2] is reported as > 100 µM (inactive) and the GI50 [3] is reported as > 100 µM (inactive). The GI50 [5] was > 100 µM (inactive), the GI50 [6] was > 100 µM (inactive) and the GI50 [7] was > 100 µM (inactive). The GI50 [8] was > 100 µM (inactive), the GI50 [9] was > 100 µM (inactive) and the GI50 [11] was > 100 µM (inactive). The GI50 [12] was > 100 µM (inactive), the GI50 [13] was > 100 µM (inactive) and the GI50 [14] was > 100 µM (inactive). For the same compound, the GI50 [15] was > 100 µM (inactive), the GI50 [17] was > 100 µM (inactive) and the GI50 [18] was > 100 µM (inactive). For the same compound, the GI50 [19] was 99.5 µM (inactive) and the GI50 [20] was > 100 µM (inactive).
For `Fc1ccc(C(OCCN2CCC3CCC(C2)N3C/C=C/c2cccnc2)c2ccc(F)cc2)cc1` (centres undefined), the GI50 [1] was 14.3 µM (inactive), the GI50 [2] was 11.8 µM (inactive) and the GI50 [3] was 4.11 µM (inactive). For the same compound, the GI50 [4] was 12.2 µM (inactive), the GI50 [6] was 3.44 µM (inactive) and the GI50 [8] was 2.48 µM (inactive). For the same compound, the GI50 [9] was 12.7 µM (inactive), the GI50 [10] was 11.3 µM (inactive) and the GI50 [11] was 12.6 µM (inactive). For the same compound, the GI50 [12] was 13.8 µM (inactive), the GI50 [13] was 13 µM (inactive) and the GI50 [14] was 5.28 µM (inactive). The GI50 [15] was 11.5 µM (inactive), the GI50 [16] was 2.24 µM (inactive) and the GI50 [17] was 14.7 µM (inactive). For the same compound, the GI50 [18] was 15.2 µM (inactive) and the GI50 [19] was 14.2 µM (inactive).
`COc1ccc(/C=C2\N=C3N(Cc4ccccc4)C=C(N)N3C2=O)cc1` was tested, and the GI50 [1] was 88.1 µM (inactive), the GI50 [2] was > 100 µM (inactive) and the GI50 [3] was 89.5 µM (inactive). The GI50 [4] was 59.4 µM (inactive), the GI50 [5] was 55 µM (inactive) and the GI50 [6] was > 100 µM (inactive). The GI50 [7] was > 100 µM (inactive), the GI50 [8] was > 100 µM (inactive) and the GI50 [9] was > 100 µM (inactive). For the same compound, the GI50 [10] was > 100 µM (inactive), the GI50 [11] was > 100 µM (inactive) and the GI50 [12] was 82.8 µM (inactive). The GI50 [13] was 64.6 µM (inactive), the GI50 [14] was > 100 µM (inactive) and the GI50 [15] was > 100 µM (inactive). The GI50 [16] was > 100 µM (inactive), the GI50 [17] was 37.2 µM (inactive) and the GI50 [18] was 20.8 µM (inactive). The GI50 [19] was 17.5 µM (inactive).
`COc1ccc(/C=N/n2c(-c3ccccc3)n[nH]c2=O)cc1` was tested, and the GI50 [1] was 25.3 µM (inactive), the GI50 [2] was 95.1 µM (inactive) and the GI50 [3] was > 100 µM (inactive). For the same compound, the GI50 [4] was > 100 µM (inactive), the GI50 [6] was > 100 µM (inactive) and the GI50 [7] was > 100 µM (inactive). The GI50 [8] was 46.9 µM (inactive), the GI50 [9] was > 100 µM (inactive) and the GI50 [10] was > 100 µM (inactive). The GI50 [11] was 53.8 µM (inactive), the GI50 [12] was > 100 µM (inactive) and the GI50 [13] was > 100 µM (inactive). The GI50 [15] was > 100 µM (inactive), the GI50 [16] was > 100 µM (inactive) and the GI50 [17] was > 100 µM (inactive). The GI50 [18] was > 100 µM (inactive) and the GI50 [19] was > 100 µM (inactive).
For `O=C(Nc1nc2ccc([N+](=O)[O-])cc2s1)C(=O)C(C1OC(=O)c2ccccc21)[N+](=O)[O-]` (centres undefined), the GI50 [1] was 12.6 µM (inactive), the GI50 [2] was > 100 µM (inactive) and the GI50 [3] was 63.2 µM (inactive). For the same compound, the GI50 [4] was 31.5 µM (inactive), the GI50 [5] was 63.2 µM (inactive) and the GI50 [6] was > 100 µM (inactive). For the same compound, the GI50 [7] was 83.4 µM (inactive), the GI50 [8] was 88.5 µM (inactive) and the GI50 [9] was > 100 µM (inactive). For the same compound, the GI50 [11] was > 100 µM (inactive), the GI50 [12] was > 100 µM (inactive) and the GI50 [13] was > 100 µM (inactive). The GI50 [14] was 27.5 µM (inactive), the GI50 [15] was 49.9 µM (inactive) and the GI50 [16] was > 100 µM (inactive). For the same compound, the GI50 [17] was 54.3 µM (inactive), the GI50 [18] was 58.6 µM (inactive) and the GI50 [19] was 35.6 µM (inactive). The GI50 [20] was 54.1 µM (inactive).
For `Cc1ccc(-c2c(C#N)c(-c3ccc(Cl)cc3)c(C#N)c(=O)n2NS(=O)(=O)c2ccc(C)cc2)cc1`, the GI50 [1] was 35 µM (inactive), the GI50 [2] was 26.4 µM (inactive) and the GI50 [3] was 20.7 µM (inactive). The GI50 [4] was 47.6 µM (inactive), the GI50 [6] was 37.2 µM (inactive) and the GI50 [7] was 33.9 µM (inactive). The GI50 [8] was 16.9 µM (inactive), the GI50 [9] was 27.4 µM (inactive) and the GI50 [10] was 18.3 µM (inactive). The GI50 [11] was 26.6 µM (inactive), the GI50 [12] was 43.3 µM (inactive) and the GI50 [13] was 26.2 µM (inactive). For the same compound, the GI50 [14] was 21 µM (inactive), the GI50 [15] was 18.7 µM (inactive) and the GI50 [16] was 30.3 µM (inactive). For the same compound, the GI50 [17] was 22.1 µM (inactive), the GI50 [18] was 36.3 µM (inactive) and the GI50 [19] was 30.1 µM (inactive).
In the case of `CC(O)CNC(=O)Nc1c(C(F)(F)F)cc(-c2ccccc2)[nH]c1=O` (centres undefined), the GI50 [1] is reported as > 100 µM (inactive), the GI50 [2] is reported as > 100 µM (inactive) and the GI50 [3] is reported as 13.8 µM (inactive). The GI50 [4] was > 100 µM (inactive), the GI50 [5] was 0.343 µM (active) and the GI50 [6] was > 100 µM (inactive). For the same compound, the GI50 [7] was > 100 µM (inactive), the GI50 [8] was > 100 µM (inactive) and the GI50 [9] was > 100 µM (inactive). For the same compound, the GI50 [10] was > 100 µM (inactive), the GI50 [11] was > 100 µM (inactive) and the GI50 [12] was > 100 µM (inactive). The GI50 [13] was > 100 µM (inactive), the GI50 [14] was > 100 µM (inactive) and the GI50 [16] was > 100 µM (inactive). The GI50 [17] was > 100 µM (inactive) and the GI50 [18] was > 100 µM (inactive).
In the case of `Cc1ccc2c(C3Cc4ccccc4N3C(=O)/C=C\C(=O)O)c(C)[nH]c2c1` (centres undefined), the GI50 [1] is reported as 65.8 µM (inactive), the GI50 [2] is reported as > 100 µM (inactive) and the GI50 [3] is reported as 23.5 µM (inactive). For the same compound, the GI50 [4] was 78.7 µM (inactive), the GI50 [5] was 19.6 µM (inactive) and the GI50 [6] was 73.5 µM (inactive). The GI50 [7] was 22.2 µM (inactive), the GI50 [8] was 29.5 µM (inactive) and the GI50 [9] was > 100 µM (inactive). For the same compound, the GI50 [11] was > 100 µM (inactive), the GI50 [12] was > 100 µM (inactive) and the GI50 [13] was 30.6 µM (inactive). For the same compound, the GI50 [14] was 29.9 µM (inactive), the GI50 [15] was 47.2 µM (inactive) and the GI50 [16] was 59 µM (inactive). For the same compound, the GI50 [17] was > 100 µM (inactive), the GI50 [18] was 40.7 µM (inactive) and the GI50 [19] was 35.4 µM (inactive). For the same compound, the GI50 [20] was 25.1 µM (inactive).
With `CCc1ccccc1NC(=O)/C(CC(=O)c1c(C)[n+]([O-])c2ccccc2[n+]1[O-])=N\NS(=O)(=O)c1ccc(C)cc1` the GI50 [1] was > 100 µM (inactive), the GI50 [2] was 34.9 µM (inactive) and the GI50 [3] was 16.7 µM (inactive). The GI50 [4] was 46 µM (inactive), the GI50 [5] was 15.8 µM (inactive) and the GI50 [6] was 38.7 µM (inactive). For the same compound, the GI50 [7] was 27.2 µM (inactive), the GI50 [8] was 18 µM (inactive) and the GI50 [9] was 25.6 µM (inactive). For the same compound, the GI50 [11] was 22.5 µM (inactive), the GI50 [12] was > 100 µM (inactive) and the GI50 [13] was 27 µM (inactive). The GI50 [14] was > 100 µM (inactive), the GI50 [15] was 36.6 µM (inactive) and the GI50 [16] was 47.9 µM (inactive). For the same compound, the GI50 [17] was > 100 µM (inactive), the GI50 [18] was > 100 µM (inactive) and the GI50 [19] was > 100 µM (inactive). For the same compound, the GI50 [20] was 16.6 µM (inactive).
With `C[n+]1cccc(NC(=O)c2ccc(NC(=O)C34CCC(C(=O)Nc5ccc(C(=O)Nc6ccc[n+](C)c6)cc5)(CC3)CC4)cc2)c1` the GI50 [1] was 18 µM (inactive), the GI50 [2] was 22.5 µM (inactive) and the GI50 [3] was 15.2 µM (inactive). The GI50 [4] was 26.9 µM (inactive), the GI50 [5] was 1.87 µM (inactive) and the GI50 [6] was 45.9 µM (inactive). The GI50 [7] was 2.55 µM (inactive), the GI50 [8] was 56.2 µM (inactive) and the GI50 [9] was 7.45 µM (inactive). The GI50 [11] was > 100 µM (inactive), the GI50 [12] was > 100 µM (inactive) and the GI50 [13] was 42.7 µM (inactive). For the same compound, the GI50 [14] was 22.1 µM (inactive), the GI50 [15] was 80.5 µM (inactive) and the GI50 [16] was 42.2 µM (inactive). The GI50 [18] was 24.9 µM (inactive), the GI50 [19] was 2.84 µM (inactive) and the GI50 [20] was 21.3 µM (inactive).
